Measured values published in patent US20210130291A1, “METHODS FOR TREATING DIABETES USING VDAC1 INHIBITORS” (THE NATIONAL INSTITUTE FOR BIOTECHNOLOGY IN THE NEGEV LTD., priority 2016, published 2021).

Legend:
plVDAC1 = biological target: T1, plVDAC1 (Mus musculus, UniProt Q60932); assay: Whole-cell patch-clamp membrane conductance in INS-1 cells; format: cell-based; conditions: superfusion with metformin 20 μM (FIG. 4f)
T1 construct: expressed in transfected cells; host or cells: INS-1 832/13 cells (rat insulinoma), transient transfection; plasmid a gift from Dr. R. Buettner
T1 sequence (Q60932 whole entry, the tested form may be a part): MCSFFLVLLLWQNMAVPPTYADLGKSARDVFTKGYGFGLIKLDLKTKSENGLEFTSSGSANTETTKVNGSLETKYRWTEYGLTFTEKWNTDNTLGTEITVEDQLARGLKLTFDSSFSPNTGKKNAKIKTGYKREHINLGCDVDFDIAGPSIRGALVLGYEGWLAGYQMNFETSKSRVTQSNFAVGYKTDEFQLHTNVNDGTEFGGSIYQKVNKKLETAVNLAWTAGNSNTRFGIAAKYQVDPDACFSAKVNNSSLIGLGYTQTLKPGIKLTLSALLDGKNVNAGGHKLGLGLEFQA
Procedure: Whole-cell currents in INS-1 832/13 cells were evoked and recorded by EPC10 amplifier and Pulse software (HEKA, Lambrecht/Pfalz, Germany) as previously described (Buda P. et al. 2013. PLoS One. 8(5):e64462) with the temperature maintained at 32° C. The cells were continuously perfused with extracellular solution containing 118 mM NaCl, 20 mM tetraethylammonium chloride, 5.6 mM KCl, 2.6 mM CaCl2), 1.2 mM MgCl2, 5 mM HEPES and 5 mM glucose (pH 7.4 with NaOH) in the presence of 100 μM tolbutamide (T0891, Sigma-Aldrich). The intracellular solution consisted of 125 mM Cs-glutamate, 10 mM CsCl, 10 mM NaCl, 1 mM MgCl2, 5 mM HEPES, 3 mM Mg-ATP, 0.1 mM cAMP and 0.05 mM EGTA (pH 7.2 with CsOH). […] Conductance was measured by applying 200-ms voltage ramps from −90 mV to −50 mV. […] Data presented are from […] after the addition when steady-state was reached.
Conductance measurements were performed after at least 5 minutes exposure, and the cell dish was replaced no later than after 1 hour of perfusion. No wash-out experiments were performed in this experiment.

human islet cells = assay: Cellular reductive capacity (MTS) in human islets; format: cell-based; conditions: VDAC1 antibody 10 nM
Procedure: The reductive capacity of cells was measured either on INS-1 cells or dispersed human islet cells when the INS-1 cells or islets were subjected to 5 or 20 mM glucose for 72 h in the absence or presence of test agents or after down-regulation of VDAC1 and VDAC2 as described elsewhere (35, 40). Measurement of reductive capacity was performed using the MTS reagent kit according to the manufacturer's instructions (Promega). Apoptosis was measured with the Cell Death Kit (Roche Diagnostics), which quantifies the appearance of cytosolic nucleosomes.

[1] = tested on: VDAC1 in islets from T2D donors; assay: VDAC1 expression and localization in islets of T2D donors with documented metformin therapy; design: species or system human
Procedure: Donors were grouped according to HbA1c i.e. less than 6% (ND), between 6% and 6.5% (IGT), higher than 6.5% or history of diabetes (T2D). […] The islets were then hand-picked under stereomicroscope prior to use. […] Total RNA from handpicked mouse islets, human donor islets (Diabetic and non-diabetic) or [MUT] cells were extracted using RNAeasy (Qiagen, Hilden, Germany). […] Concentration and purity of total RNA was measured with a NanoDrop ND-1000 spectrophotometer (A260/A280>1.9 and A260/A230>1.4) (NanoDrop Technologies, Wilmington, Del.) and RNA Quality Indicator (RQI) higher than 8.0 (Experion Automated Electrophoresis, Bio-Rad, USA) was considered to be high-quality total RNA preparations. […] The qPCR was carried out as follows: 50° C. for 2 minutes, 95° C. for 10 minutes, 40 cycles of 95° C. for 15 seconds, and 60° C. for 1 minute. […] Isolated human or mouse islets as well as INS-1 cells were seeded on the glass-bottom dish cultured overnight. […] Primary antibodies against mouse VDAC1 (Abcam), goat VDAC2 (Abcam) and Guinea pig insulin (Eurodiagnostica) were diluted in blocking buffer and incubated overnight at 4° C. Immunoreactivity was quantified using fluorescently labeled secondary antibodies (1:200) and visualized by confocal microscopy (Carl Zeiss, Germany). The ratio is calculated by mean intensity of plasma membrane to mean intensity in cytosol, according to the formula:

db/db mice = conditions: Cao K, et al. 2014; cited from earlier work
TXNIP = conditions: insulin-secreting cells and endothelial cells (Shaked 2011; Li 2015); cited from earlier work

elevated conductance in plVDAC1-transformed cells (plVDAC1): abrogating the elevated conductance | membrane currents in control INS-1 cells (plVDAC1): did not affect membrane currents
Compound: CN(C)C(=N)N=C(N)N [metformin]
cellular reductive capacity (metabolism) in T2D islets (human islet cells; metformin 20 μM (FIG. 6h)): markedly improved metabolism | cellular reductive capacity after culture at 5 mM glucose (human islet cells; human islets, metformin 20 μM (FIG. 6g)): no effect | islet VDAC1 mRNA ([1]; islets from T2D donors with documented metformin therapy (n=4)): did not display elevated VDAC1 mRNA | VDAC1 localization in β-cells ([1]; single examined T2D donor with documented metformin therapy (FIG. 3a, 3b)): remained intracellular | severity of hyperglycemia at onset of the disease (db/db mice): attenuates the severity of hyperglycemia | TXNIP activation by high glucose concentrations (TXNIP): inhibits TXNIP activation
